What all share (format): biochemical
The target of experiment [1] is JAK3 (Homo sapiens (Human), UniProt P52333). Put plainly: JAK enzymatic assay (peptide mobility shift), JAK3. As to conditions: recombinant JAK3 1 nM, JAKtide peptide, 90 minutes.
Experiment [2] has as its target JAK2 (Homo sapiens (Human), UniProt O60674). Put plainly: JAK enzymatic assay (peptide mobility shift), JAK2. The conditions noted are these: recombinant JAK2 2 nM, JAKtide peptide, 150 minutes.
In experiment [3] the target is JAK1 (Homo sapiens (Human), UniProt P23458). The experiment is described as follows: JAK enzymatic assay (peptide mobility shift), JAK1. The conditions noted are these: recombinant JAK1 20 nM, IRS-1 peptide, 240 minutes.
Sequence of JAK1 (P23458 whole entry): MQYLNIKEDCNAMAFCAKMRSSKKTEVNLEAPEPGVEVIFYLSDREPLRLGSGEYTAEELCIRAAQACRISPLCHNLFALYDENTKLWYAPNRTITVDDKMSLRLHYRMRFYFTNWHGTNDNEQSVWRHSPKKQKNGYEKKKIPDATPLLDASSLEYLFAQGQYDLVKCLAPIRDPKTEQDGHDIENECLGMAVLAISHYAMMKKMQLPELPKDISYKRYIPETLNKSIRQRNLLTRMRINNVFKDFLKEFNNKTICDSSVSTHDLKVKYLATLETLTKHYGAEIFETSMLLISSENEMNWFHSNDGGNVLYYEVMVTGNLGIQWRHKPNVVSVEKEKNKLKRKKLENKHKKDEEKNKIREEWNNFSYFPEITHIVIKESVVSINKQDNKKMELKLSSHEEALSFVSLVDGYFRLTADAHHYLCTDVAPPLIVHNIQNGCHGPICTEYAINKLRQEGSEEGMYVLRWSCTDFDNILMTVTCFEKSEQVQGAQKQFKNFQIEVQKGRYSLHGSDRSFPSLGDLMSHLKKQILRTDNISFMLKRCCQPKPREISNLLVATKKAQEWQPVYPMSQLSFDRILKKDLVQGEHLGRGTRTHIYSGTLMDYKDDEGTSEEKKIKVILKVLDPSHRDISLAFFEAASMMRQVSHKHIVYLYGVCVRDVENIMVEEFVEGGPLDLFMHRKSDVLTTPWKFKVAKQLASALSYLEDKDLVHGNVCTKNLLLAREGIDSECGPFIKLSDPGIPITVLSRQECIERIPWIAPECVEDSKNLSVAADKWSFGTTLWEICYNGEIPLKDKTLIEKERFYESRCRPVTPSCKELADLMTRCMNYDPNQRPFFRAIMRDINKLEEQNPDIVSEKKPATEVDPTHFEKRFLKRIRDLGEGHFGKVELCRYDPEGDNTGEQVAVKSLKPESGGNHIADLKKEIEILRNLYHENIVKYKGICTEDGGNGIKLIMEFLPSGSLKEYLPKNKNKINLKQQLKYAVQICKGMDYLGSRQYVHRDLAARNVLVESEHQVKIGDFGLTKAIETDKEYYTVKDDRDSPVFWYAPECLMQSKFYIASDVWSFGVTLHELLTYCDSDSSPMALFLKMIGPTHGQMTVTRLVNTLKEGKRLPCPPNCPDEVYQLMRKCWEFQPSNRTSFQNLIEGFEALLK

The term IC50 denotes the midpoint of a concentration-inhibition curve.

Sequence of JAK3 (P52333 781-1124): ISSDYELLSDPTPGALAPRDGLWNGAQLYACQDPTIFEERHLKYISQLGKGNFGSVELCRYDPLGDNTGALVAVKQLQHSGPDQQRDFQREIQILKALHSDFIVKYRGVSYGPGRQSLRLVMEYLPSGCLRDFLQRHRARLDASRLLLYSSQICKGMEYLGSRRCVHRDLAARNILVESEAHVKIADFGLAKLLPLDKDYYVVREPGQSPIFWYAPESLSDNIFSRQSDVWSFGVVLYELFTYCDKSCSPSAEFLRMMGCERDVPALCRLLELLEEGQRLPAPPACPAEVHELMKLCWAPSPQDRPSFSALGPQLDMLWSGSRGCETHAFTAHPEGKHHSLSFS
Sequence of JAK2 (O60674 808-1132): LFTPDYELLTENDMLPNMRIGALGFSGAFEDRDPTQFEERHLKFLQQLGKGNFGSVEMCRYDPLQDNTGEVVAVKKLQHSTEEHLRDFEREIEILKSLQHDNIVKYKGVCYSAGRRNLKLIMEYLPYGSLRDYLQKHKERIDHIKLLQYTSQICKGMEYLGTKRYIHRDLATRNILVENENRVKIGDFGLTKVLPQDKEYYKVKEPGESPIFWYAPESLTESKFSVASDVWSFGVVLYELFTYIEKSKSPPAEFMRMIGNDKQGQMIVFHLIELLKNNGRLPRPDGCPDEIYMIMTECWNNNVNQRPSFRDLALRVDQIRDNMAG

With `CN(C(=O)OC(C)(C)C)[C@H]1CCN(S(=O)(=O)C[C@H]2CC[C@H](N(C)c3ncnc4[nH]ccc34)CC2)C1` [Example 92, tert-butyl methyl{(3S)-1-[({trans-4-[methyl(7H-pyrrolo[2,3-d]pyrimidin-4-yl)amino]cyclohexyl}methyl)-sulfonyl]pyrrolidin-3-yl}carbamate], the values for the IC50 in experiment [1], in experiment [2] and in experiment [3] were 488 nM, 81 nM and 6.91 nM, respectively.

As to `CN(c1ncnc2[nH]ccc12)[C@H]1CC[C@H](CS(=O)(=O)N2CC[C@H](c3ccccc3F)C2)CC1` [Example 93, N-[trans-4-({[3-(2-fluorophenyl)pyrrolidin-1-yl]sulfonyl}methyl)cyclo-hexyl]-N-methyl-7H-pyrrolo[2,3-d]pyrimidin-4-amine], the IC50 in experiment [1] worked out at 286 nM; in experiment [2], 37.4 nM; in experiment [3], 5.5 nM.

For `CCc1ccc(COC[C@H]2CCN(S(=O)(=O)C[C@H]3CC[C@H](N(C)c4ncnc5[nH]ccc45)CC3)C2)nc1` [Example 94, N-(trans-4-{[(3-{[(5-ethylpyridin-2-yl)methoxy]-methyl}pyrrolidin-1-yl)-sulfonyl]methyl}-cyclohexyl)-N-methyl-7H-pyrrolo[2,3-d]pyrimidin-4-amine], the values for the concentration for half-maximal inhibition (IC50) in experiment [1], in experiment [2] and in experiment [3] were 678 nM, 63.6 nM and 17.5 nM, respectively.

`CN(c1ncnc2[nH]ccc12)[C@H]1CC[C@H](CS(=O)(=O)N2CC[C@](CO)(CCO)C2)CC1` [Example 95, 2-{3-(hydroxymethyl)-1-[({trans-4-[methyl(7H-pyrrolo[2,3-d]pyrimidin-4-yl)amino]cyclohexyl}-methyl)sulfonyl]pyrrolidin-3-yl}-ethanol]: the half-maximal inhibitory concentration (IC50) in experiment [1] was determined as 612 nM; in experiment [2], 45.8 nM; in experiment [3], 12.5 nM.

Take `CN(c1ncnc2[nH]ccc12)[C@H]1CC[C@H](CS(=O)(=O)N2CC[C@H](COCc3cccnc3)C2)CC1` [Example 96, N-methyl-N-{trans-4-[({3-[(pyridin-3-ylmethoxy)-methyl]pyrrolidin-1-yl}-sulfonyl)methyl]-cyclohexyl}-7H-pyrrolo[2,3-d]pyrimidin-4-amine]: the IC50 in experiment [1] was 462 nM; in experiment [2] it was 32.1 nM; in experiment [3], 19.3 nM.

With `CN(c1ncnc2[nH]ccc12)[C@H]1CC[C@H](CS(=O)(=O)N2CC[C@@](O)(CSc3ccccn3)C2)CC1` [Example 97, 1-[({trans-4-[methyl(7H-pyrrolo[2,3-d]pyrimidin-4-yl)-amino]cyclohexyl}-methyl)sulfonyl]-3-[(pyridin-2-ylthio)-methyl]pyrrolidin-3-ol], the half-inhibitory concentration (IC50) in experiment [1] was determined as 85.6 nM; in experiment [2] it was 13.1 nM; in experiment [3] it was 1.36 nM.

Turning to `CN(c1ncnc2[nH]ccc12)[C@H]1CC[C@H](CS(=O)(=O)N2CC[C@H](OCC(=O)N3CCCC3)C2)CC1` [Example 98, N-methyl-N-[trans-4-({[3-(2-oxo-2-pyrrolidin-1-ylethoxy)pyrrolidin-1-yl]sulfonyl}methyl)cyclo-hexyl]-7H-pyrrolo[2,3-d]pyrimidin-4-amine], the half-maximal inhibitory concentration (IC50) was determined as 386 nM in experiment [1], 29.6 nM in experiment [2] and 4.37 nM in experiment [3].

With `CN(c1ncnc2[nH]ccc12)[C@H]1CC[C@H](CS(=O)(=O)N2CC[C@@H](c3ccccc3)C2)CC1` [Example 100, N-methyl-N-(trans-4-{[(3-phenylpyrrolidin-1-yl)sulfonyl]methyl}cyclo-hexyl)-7H-pyrrolo[2,3-d]pyrimidin-4-amine], the figures for the 50% inhibitory concentration (IC50) in experiment [1], in experiment [2] and in experiment [3] were 414 nM, 40.7 nM and 6.89 nM, respectively.

Regarding `CCN(CC)C(=O)CO[C@@H]1CCN(S(=O)(=O)C[C@H]2CC[C@H](N(C)c3ncnc4[nH]ccc34)CC2)C1` [Example 101, N,N-diethyl-2-({(3R)-1-[({trans-4-[methyl(7H-pyrrolo[2,3-d]pyrimidin-4-yl)amino]cyclohexyl}-methyl)sulfonyl]pyrrolidin-3-yl}oxy)acetamide], the half-maximal inhibitory concentration (IC50) in experiment [1] came out at 584 nM; in experiment [2], 35.9 nM; in experiment [3], 4.86 nM.

Take `CN(c1ncnc2[nH]ccc12)[C@H]1CC[C@H](CS(=O)(=O)N2CC[C@H](Cc3cnccn3)C2)CC1` [Example 102, N-methyl-N-[trans-4-({[3-(pyrazin-2-ylmethyl)-pyrrolidin-1-yl]sulfonyl}-methyl)cyclohexyl]-7H-pyrrolo[2,3-d]pyrimidin-4-amine]: the values for the half-inhibitory concentration (IC50) in experiment [1], in experiment [2] and in experiment [3] were 283 nM, 28.6 nM and 19.9 nM, respectively.

Consider `CN(c1ncnc2[nH]ccc12)[C@H]1CC[C@H](CS(=O)(=O)N2CC[C@](O)(c3ccccn3)C2)CC1` [Example 103, 1-[({trans-4-[methyl(7H-pyrrolo[2,3-d]pyrimidin-4-yl)-amino]cyclohexyl}-methyl)sulfonyl]-3-pyridin-2-ylpyrrolidin-3-ol], for which the IC50 in experiment [1] was 294 nM; in experiment [2] it was 35.8 nM; in experiment [3], 10.6 nM.

As for `CN(c1ncnc2[nH]ccc12)[C@H]1CC[C@H](CS(=O)(=O)N2CC[C@H](Cc3ccccc3)C2)CC1` [Example 104, N-(trans-4-{[(3-benzyl-pyrrolidin-1-yl)sulfonyl]-methyl}cyclohexyl)-N-methyl-7H-pyrrolo[2,3-d]-pyrimidin-4-amine], the half-inhibitory concentration (IC50) was 721 nM in experiment [1], 65.4 nM in experiment [2] and 18 nM in experiment [3].

Take `CCN1CCN(C[C@H]2CCN(S(=O)(=O)C[C@H]3CC[C@H](N(C)c4ncnc5[nH]ccc45)CC3)C2)C(=O)C1=O` [Example 105, 1-ethyl-4-({1-[({trans-4-[methyl(7H-pyrrolo[2,3-d]pyrimidin-4-yl)amino]cyclohexyl}methyl)-sulfonyl]pyrrolidin-3-yl}methyl)piperazine-2,3-dione]: the IC50 came to 755 nM in experiment [1], 90.4 nM in experiment [2] and 17.8 nM in experiment [3].

Consider `Cc1cccc(C[C@H]2CCCN2S(=O)(=O)C[C@H]2CC[C@H](N(C)c3ncnc4[nH]ccc34)CC2)n1` [Example 106, N-methyl-N-{trans-4-[({2-[(6-methylpyridin-2-yl)methyl]pyrrolidin-1-yl}sulfonyl)methyl]cyclo-hexyl}-7H-pyrrolo[2,3-d]pyrimidin-4-amine], for which the 50% inhibitory concentration (IC50) amounted to 322 nM in experiment [1], 24.3 nM in experiment [2] and 3.6 nM in experiment [3].

As to `CN(c1ncnc2[nH]ccc12)[C@H]1CC[C@H](CS(=O)(=O)N2CC[C@H](c3ccccn3)C2)CC1` [Example 107, N-methyl-N-(trans-4-{[(3-pyridin-2-ylpyrrolidin-1-yl)sulfonyl]methyl}cyclo-hexyl)-7H-pyrrolo[2,3-d]pyrimidin-4-amine], the concentration for half-maximal inhibition (IC50) in experiment [1] is 36.3 nM; in experiment [2] it was 6.22 nM; in experiment [3], 2.54 nM.

Take `CN(c1ncnc2[nH]ccc12)[C@H]1CC[C@H](CS(=O)(=O)N2CCC2)CC1` [Example 109, N-{trans-4-[(azetidin-1-ylsulfonyl)methyl]cyclo-hexyl}-N-methyl-7H-pyrrolo[2,3-d]pyrimidin-4-amine]: the IC50 in experiment [1] was 289 nM; in experiment [2], 39.4 nM; in experiment [3], 14.3 nM.

For the compound `CN(c1ncnc2[nH]ccc12)[C@H]1CC[C@H](CS(=O)(=O)N2CC(c3ncccn3)C2)CC1` [Example 110, N-methyl-N-(trans-4-{[(3-pyrimidin-2-ylazetidin-1-yl)sulfonyl]methyl}cyclo-hexyl)-7H-pyrrolo[2,3-d]pyrimidin-4-amine], the half-inhibitory concentration (IC50) in experiment [1] turned out to be 294 nM; in experiment [2], 22.6 nM; in experiment [3], 16.4 nM.

These data come from patent publication US8633206B2, “Pyrrolo[2,3-D]pyrimidine compounds” (Pfizer Inc., priority 2009, dated 2014).
